Source: PubChem BioAssay (NCI)
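Briefly, cells in 96-well plates were exposed to five compound concentrations for 48 h, and endpoints were estimated by linear interpolation. Here, GI50 denotes the concentration required for 50% inhibition of growth. TGI: concentration producing complete growth inhibition.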

Experiments:
Test in all cases: DTP human tumour cell line panel, 48 h
[1] = system: SW-620 colon
[2] = system: HCT-15 colon
[3] = system: SF-295 CNS
[4] = system: LOX IMVI melanoma
[5] = system: ACHN renal
[6] = system: KM12 colon
[7] = system: SN12C renal
[8] = system: RPMI-8226 leukemia
[9] = system: K-562 leukemia
[10] = system: NCI/ADR-RES ovarian
[11] = system: SF-539 CNS
[12] = system: T-47D breast
[13] = system: U251 CNS
[14] = system: MCF7 breast
[15] = system: MOLT-4 leukemia
[16] = system: SF-268 CNS
[17] = system: OVCAR-4 ovarian
[18] = system: CCRF-CEM leukemia
[19] = system: SR leukemia
[20] = system: HCT-116 colon
[21] = system: HCC-2998 colon
[22] = system: NCI-H460 lung
[23] = system: EKVX NSCLC
[24] = system: MDA-N
[25] = system: HOP-62 NSCLC
[26] = system: SK-MEL-2 melanoma
[27] = system: UO-31 renal
[28] = system: OVCAR-8 ovarian
[29] = system: SK-MEL-28 melanoma
[30] = system: OVCAR-5 ovarian
[31] = system: 786-0 renal
[32] = system: SNB-19 CNS
[33] = system: SNB-75 CNS
[34] = system: UACC-257 melanoma
[35] = system: HL-60(TB) leukemia
[36] = system: PC-3 prostate
[37] = system: A498 renal
[38] = system: HOP-92 NSCLC
[39] = system: CAKI-1 renal
[40] = system: COLO 205 colon
[41] = system: DU-145 prostate
[42] = system: NCI-H23 lung
[43] = system: A549 NSCLC
[44] = system: IGROV1 ovarian
[45] = system: HS 578T breast
[46] = system: SK-MEL-5 melanoma
[47] = system: OVCAR-3 ovarian
[48] = system: SK-OV-3 ovarian
[49] = system: MDA-MB-231 breast
[50] = system: MALME-3M melanoma
[51] = system: TK-10 renal
[52] = system: NCI-H226 lung
[53] = system: HT29 colon
[54] = system: NCI-H522 lung
[55] = system: UACC-62 melanoma
[56] = system: RXF 393 renal
[57] = system: M14 melanoma
[58] = system: BT-549 breast
[59] = system: MDA-MB-435

## CC1CN=C(Nc2ccc(F)cc2F)S1 (configuration not stated)
[1]
  TGI: > 100 µM
[2]
  TGI: > 100 µM
[3]
  TGI: > 100 µM
[4]
  TGI: > 100 µM
[5]
  TGI: > 100 µM
[6]
  TGI: > 100 µM
[7]
  TGI: > 100 µM
[8]
  TGI: > 100 µM
[9]
  TGI: > 100 µM
[10]
  TGI: > 100 µM
[11]
  TGI: > 100 µM
[12]
  TGI: > 100 µM
[13]
  TGI: > 100 µM
[14]
  TGI: > 100 µM
[15]
  TGI: > 100 µM
[16]
  TGI: > 100 µM
[17]
  TGI: > 100 µM
[18]
  TGI: > 100 µM
[19]
  TGI: > 100 µM
[20]
  TGI: > 100 µM
[21]
  TGI: > 100 µM
[22]
  TGI: > 100 µM
[23]
  TGI: > 100 µM
[24]
  TGI: > 100 µM
[25]
  TGI: > 100 µM
[26]
  TGI: > 100 µM
[27]
  TGI: > 100 µM
[28]
  TGI: > 100 µM
[29]
  TGI: > 100 µM
[30]
  TGI: > 100 µM
[31]
  TGI: > 100 µM
[32]
  TGI: > 100 µM
[33]
  TGI: > 100 µM
[34]
  TGI: > 100 µM
[35]
  TGI: > 100 µM
[36]
  TGI: > 100 µM
[37]
  TGI: > 100 µM
[38]
  TGI: > 100 µM
[39]
  TGI: > 100 µM
[40]
  TGI: > 100 µM
[41]
  TGI: > 100 µM
[42]
  TGI: > 100 µM
[43]
  TGI: > 100 µM
[44]
  TGI: > 100 µM
[45]
  TGI: > 100 µM
[46]
  TGI: > 100 µM
[47]
  TGI: > 100 µM
[48]
  TGI: > 100 µM
[49]
  TGI: > 100 µM
[50]
  TGI: > 100 µM
[51]
  TGI: > 100 µM

## O=c1cc(-c2ccccc2)[nH]c2cc(F)c(F)cc12
[1]
  TGI: > 100 µM
[2]
  TGI: > 100 µM
[52]
  TGI: > 26.4 µM
[3]
  TGI: > 100 µM
[4]
  TGI: > 100 µM
[5]
  TGI: > 35.5 µM
[6]
  TGI: > 100 µM
[7]
  TGI: > 100 µM
[8]
  TGI: > 100 µM
[53]
  TGI: > 46.4 µM
[9]
  TGI: > 100 µM
[10]
  TGI: > 19.6 µM
[11]
  TGI: 2.33 µM
[54]
  TGI: 10.8 µM
[13]
  TGI: > 58.6 µM
[14]
  TGI: > 71.9 µM
[15]
  TGI: > 100 µM
[16]
  TGI: > 20.8 µM
[17]
  TGI: > 100 µM
[18]
  TGI: > 100 µM
[19]
  TGI: > 100 µM
[20]
  TGI: > 100 µM
[21]
  TGI: > 30.9 µM
[22]
  TGI: > 100 µM
[55]
  TGI: > 50.1 µM
[23]
  TGI: > 100 µM
[56]
  TGI: 0.616 µM
[57]
  TGI: > 100 µM
[24]
  TGI: 1.17 µM
[25]
  TGI: > 100 µM
[26]
  TGI: > 75.1 µM
[27]
  TGI: > 100 µM
[28]
  TGI: > 100 µM
[29]
  TGI: > 100 µM
[30]
  TGI: > 100 µM
[31]
  TGI: 4.18 µM
[32]
  TGI: > 50.6 µM
[33]
  TGI: 90 µM
[34]
  TGI: > 100 µM
[35]
  TGI: 3.14 µM
[36]
  TGI: > 100 µM
[37]
  TGI: > 62.8 µM
[38]
  TGI: > 100 µM
[39]
  TGI: > 100 µM
[40]
  TGI: 34.7 µM
[41]
  TGI: 34.1 µM
[42]
  TGI: 22.9 µM
[43]
  TGI: > 31.5 µM
[44]
  TGI: > 54.1 µM
[45]
  TGI: > 28.9 µM
[46]
  TGI: 18.7 µM
[47]
  TGI: 43.7 µM
[48]
  TGI: > 56.1 µM
[49]
  TGI: > 77.2 µM
[50]
  TGI: > 100 µM
[51]
  TGI: > 100 µM

## CC[C@@H](C(=O)[C@@H](C)[C@@H](O)[C@H](C)[C@@H]1O[C@@H]([C@@H](CC)C(=O)O)CC[C@@H]1C)C1O[C@]2(C=CC(=O)[C@]3(CC[C@@](C)([C@H]4CC[C@](O)(CC)[C@H](C)O4)O3)O2)[C@H](C)C[C@@H]1C (some centres not stated)
[1]
  GI50: 0.827 µM
  TGI: 12.8 µM
[2]
  GI50: 0.644 µM
  TGI: 14.3 µM
[52]
  GI50: 1.06 µM
  TGI: 9.77 µM
[3]
  GI50: 1.21 µM
  TGI: 12.8 µM
[4]
  GI50: 0.71 µM
  TGI: 13.8 µM
[5]
  GI50: 1.33 µM
  TGI: 14.9 µM
[6]
  GI50: 0.515 µM
  TGI: 6 µM
[7]
  GI50: 0.179 µM
  TGI: 15 µM
[8]
  GI50: 0.0868 µM
  TGI: 4.81 µM
[53]
  GI50: 0.279 µM
  TGI: 16.2 µM
[9]
  GI50: 0.371 µM
  TGI: > 27.4 µM
[10]
  GI50: 0.766 µM
  TGI: 21.1 µM
[11]
  GI50: 0.334 µM
  TGI: 10.4 µM
[12]
  GI50: 0.0596 µM
  TGI: 17.3 µM
[54]
  GI50: 0.052 µM
  TGI: 3.64 µM
[13]
  GI50: 0.0791 µM
  TGI: 13.3 µM
[14]
  GI50: 0.0669 µM
  TGI: 12.8 µM
[15]
  GI50: 1.42 µM
  TGI: 6.3 µM
[16]
  GI50: 2.12 µM
  TGI: 15.7 µM
[17]
  GI50: 1.1 µM
  TGI: 17.9 µM
[18]
  GI50: 0.278 µM
  TGI: 9.3 µM
[19]
  GI50: 0.0969 µM
[20]
  GI50: 0.69 µM
  TGI: 15.3 µM
[21]
  GI50: 0.152 µM
  TGI: 12.6 µM
[22]
  GI50: 0.408 µM
  TGI: 11.3 µM
[55]
  GI50: 1.29 µM
  TGI: 2.67 µM
[23]
  GI50: 0.538 µM
  TGI: 18.7 µM
[56]
  GI50: 0.0416 µM
  TGI: 1.79 µM
[57]
  GI50: 1.41 µM
  TGI: 3.53 µM
[25]
  GI50: 0.334 µM
  TGI: 18.3 µM
[26]
  GI50: 1.04 µM
  TGI: 7.03 µM
[27]
  GI50: 1.19 µM
  TGI: 11 µM
[28]
  GI50: 1.73 µM
  TGI: > 45.2 µM
[29]
  GI50: 1.26 µM
  TGI: 2.53 µM
[30]
  GI50: 0.734 µM
  TGI: 21.5 µM
[31]
  GI50: 0.987 µM
  TGI: 14.5 µM
[32]
  GI50: 0.4 µM
  TGI: 6.96 µM
[58]
  GI50: 0.22 µM
  TGI: 13.1 µM
[33]
  GI50: 1.21 µM
  TGI: 7.12 µM
[34]
  GI50: 0.169 µM
  TGI: 16.7 µM
[35]
  GI50: 0.0399 µM
  TGI: 0.332 µM
[36]
  GI50: 0.0665 µM
  TGI: 15.5 µM
[59]
  GI50: 1.21 µM
  TGI: 2.8 µM
[37]
  GI50: 0.0631 µM
  TGI: 0.877 µM
[38]
  GI50: 1.33 µM
  TGI: 8.02 µM
[39]
  GI50: 0.765 µM
  TGI: 11.8 µM
[40]
  GI50: 0.159 µM
  TGI: 2.1 µM
[41]
  GI50: 1.43 µM
  TGI: 18 µM
[42]
  GI50: 0.0979 µM
  TGI: 8.93 µM
[43]
  GI50: 0.342 µM
  TGI: 22.7 µM
[44]
  GI50: 2.44 µM
  TGI: 20.4 µM
[45]
  GI50: 0.183 µM
  TGI: 14.9 µM
[46]
  GI50: 0.0658 µM
  TGI: 0.232 µM
[47]
  GI50: 0.0547 µM
  TGI: 12.5 µM
[48]
  GI50: 3.7 µM
  TGI: 16 µM
[49]
  GI50: 0.854 µM
  TGI: 6.01 µM
[50]
  GI50: 0.163 µM
  TGI: 0.774 µM
[51]
  GI50: 2.08 µM
  TGI: 25.8 µM
